SMILES strings stand for the structures. Where only a bound is given, the exact number is not on record here.

The experiment deals with T1, TrkA kinase (Homo sapiens, UniProt P04629).
T1 construct: purchased Upstate, USA
T1 sequence (P04629 33-796): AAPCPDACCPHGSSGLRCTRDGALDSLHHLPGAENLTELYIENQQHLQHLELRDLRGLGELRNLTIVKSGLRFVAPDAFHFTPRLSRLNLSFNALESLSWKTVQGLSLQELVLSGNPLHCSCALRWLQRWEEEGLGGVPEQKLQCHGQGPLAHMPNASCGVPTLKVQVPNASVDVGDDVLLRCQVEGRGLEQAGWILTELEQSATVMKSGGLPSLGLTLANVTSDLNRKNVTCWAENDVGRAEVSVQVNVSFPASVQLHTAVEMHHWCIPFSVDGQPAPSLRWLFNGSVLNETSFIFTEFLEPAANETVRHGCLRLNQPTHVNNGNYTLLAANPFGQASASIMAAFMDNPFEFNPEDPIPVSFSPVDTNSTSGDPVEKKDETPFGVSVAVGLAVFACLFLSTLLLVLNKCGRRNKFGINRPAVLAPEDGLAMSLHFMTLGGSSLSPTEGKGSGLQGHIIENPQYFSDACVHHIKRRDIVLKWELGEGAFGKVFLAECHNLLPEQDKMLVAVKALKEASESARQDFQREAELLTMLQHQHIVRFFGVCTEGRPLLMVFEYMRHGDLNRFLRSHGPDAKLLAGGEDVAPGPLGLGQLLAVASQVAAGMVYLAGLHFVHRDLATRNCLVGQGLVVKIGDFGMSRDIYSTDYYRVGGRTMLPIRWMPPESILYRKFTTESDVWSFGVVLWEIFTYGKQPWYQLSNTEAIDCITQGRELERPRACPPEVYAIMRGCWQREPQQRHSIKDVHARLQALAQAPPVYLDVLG
The experiment is described as follows: In vitro TrkA inhibitory activity using TR-FRET assay. The experiment is classed as biochemical. The conditions noted are these: 5 ng TrkA, 500 μM ATP, values given as bins, read-out: TrkA inhibition in-vitro IC50. In a few lines: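 TrkA kinase (5 ng) was preincubated 30 min at 20-35° C. with compound (1% DMSO final), then 40 nM ULight poly GT and 500 μM ATP were added for 30 min before an EDTA stop. Phosphorylation was detected by Eu anti-phosphotyrosine TR-FRET (ex 340, em 615/665 nm), and IC50 came from sigmoidal fits of 1/3 serial dilutions.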
In general terms: In TR-FRET formats the signal depends on donor and acceptor labels being close together.
Take `Cc1nnc(N(C)S(=O)(=O)NC(=O)c2cnc3ccc(N4C[C@@H](F)C[C@@H]4c4cc(F)ccc4O[C@@H]4CCOC4)cn23)s1` [Example 93, 6-((2R,4S)-4-fluoro-2-(5-fluoro-2-(((R)-tetrahydrofuran-3-yl)oxy)phenyl)pyrrolidin-1-yl)-N—(N-methyl-N-(5-methyl-1,3,4-thiadiazol-2-yl)sulfamoyl)imidazo[1,2-a]pyridine-3-carboxamide]: the IC50 was ≤ 0.05 µM. The same measure for `CC(C)(C)S(=O)(=O)NC(=O)c1cnc2ccc(N3C[C@@H](F)C[C@@H]3c3cc(F)ccc3OC3CCOCC3)cn12` [Example 94, N-(tert-butylsulfonyl)-6-((2R,4S)-4-fluoro-2-(5-fluoro-2-((tetrahydro-2H-pyran-4-yl)oxy)phenyl)pyrrolidin-1-yl)imidazo[1,2-a]pyridine-3-carboxamide]: 0.05 to 0.1 µM. The figure for `CCN(CC)S(=O)(=O)NC(=O)c1cnc2ccc(N3C[C@@H](F)C[C@@H]3c3cc(F)ccc3OC3CCOCC3)cn12` [Example 95, N—(N,N-diethylsulfamoyl)-6-((2R,4S)-4-fluoro-2-(5-fluoro-2-((tetrahydro-2H-pyran-4-yl)oxy)phenyl)pyrrolidin-1-yl)imidazo[1,2-a]pyridine-3-carboxamide] is ≤ 0.05 µM; for `CN(c1ccn(C)n1)S(=O)(=O)NC(=O)c1cnc2ccc(N3C[C@@H](F)C[C@@H]3c3cc(F)ccc3OC3CCOCC3)cn12` [Example 96, 6-((2R,4S)-4-fluoro-2-(5-fluoro-2-((tetrahydro-2H-pyran-4-yl)oxy)phenyl)pyrrolidin-1-yl)-N—(N-methyl-N-(1-methyl-1H-pyrazol-3-yl)sulfamoyl)imidazo[1,2-a]pyridine-3-carboxamide] it is ≤ 0.05 µM; for `CN(c1nncs1)S(=O)(=O)NC(=O)c1cnc2ccc(N3C[C@@H](F)C[C@@H]3c3cc(F)ccc3OC3CCOCC3)cn12` [Example 97, 6-((2R,4S)-4-fluoro-2-(5-fluoro-2-((tetrahydro-2H-pyran-4-yl)oxy)phenyl)pyrrolidin-1-yl)-N—(N-methyl-N-(1,3,4-thiadiazol-2-yl)sulfamoyl)imidazo[1,2-a]pyridine-3-carboxamide] it is ≤ 0.05 µM. The figure for `Cc1nnc(N(C)S(=O)(=O)NC(=O)c2cnc3ccc(N4C[C@@H](F)C[C@@H]4c4cc(F)ccc4OC4CCOCC4)cn23)s1` [Example 98, 6-((2R,4S)-4-fluoro-2-(5-fluoro-2-((tetrahydro-2H-pyran-4-yl)oxy)phenyl)pyrrolidin-1-yl)-N—(N-methyl-N-(5-methyl-1,3,4-thiadiazol-2-yl)sulfamoyl)imidazo[1,2-a]pyridine-3-carboxamide] is 0.05 to 0.1 µM; for `CN(CCF)S(=O)(=O)NC(=O)c1cnc2ccc(N3C[C@@H](F)C[C@@H]3c3cc(F)ccc3OC3CCOCC3)cn12` [Example 99, 6-((2R,4S)-4-fluoro-2-(5-fluoro-2-((tetrahydro-2H-pyran-4-yl)oxy)phenyl)pyrrolidin-1-yl)-N—(N-(2-fluoroethyl)-N-methylsulfamoyl)imidazo[1,2-a]pyridine-3-carboxamide] it is ≤ 0.05 µM; for `CN(c1nccs1)S(=O)(=O)NC(=O)c1cnc2ccc(N3C[C@@H](F)C[C@@H]3c3cc(F)ccc3OC3CCOCC3)cn12` [Example 100, 6-((2R,4S)-4-fluoro-2-(5-fluoro-2-((tetrahydro-2H-pyran-4-yl)oxy)phenyl)pyrrolidin-1-yl)-N—(N-methyl-N-(thiazol-2-yl)sulfamoyl)imidazo[1,2-a]pyridine-3-carboxamide] it is ≤ 0.05 µM. Regarding `CCCN(C)S(=O)(=O)NC(=O)c1cnc2ccc(N3C[C@@H](F)C[C@@H]3c3cc(F)ccc3O[C@@H]3CCOC3)cn12` [Example 101, 6-((2R,4S)-4-fluoro-2-(5-fluoro-2-(((R)-tetrahydrofuran-3-yl)oxy)phenyl)pyrrolidin-1-yl)-N—(N-methyl-N-propylsulfamoyl)imidazo[1,2-a]pyridine-3-carboxamide], the IC50 is ≤ 0.05 µM. The figure for `CCN(CCF)S(=O)(=O)NC(=O)c1cnc2ccc(N3C[C@@H](F)C[C@@H]3c3cc(F)ccc3OC3CCOCC3)cn12` [Example 102, N—(N-ethyl-N-(2-fluoroethyl)sulfamoyl)-6-((2R,4S)-4-fluoro-2-(5-fluoro-2-((tetrahydro-2H-pyran-4-yl)oxy)phenyl)pyrrolidin-1-yl)imidazo[1,2-a]pyridine-3-carboxamide] is ≤ 0.05 µM; for `CN(c1ccccn1)S(=O)(=O)NC(=O)c1cnc2ccc(N3C[C@@H](F)C[C@@H]3c3cc(F)ccc3O[C@@H]3CCOC3)cn12` [Example 103, 6-((2R,4S)-4-fluoro-2-(5-fluoro-2-(((R)-tetrahydrofuran-3-yl)oxy)phenyl)pyrrolidin-1-yl)-N—(N-methyl-N-(pyridin-2-yl)sulfamoyl)imidazo[1,2-a]pyridine-3-carboxamide] it is ≤ 0.05 µM; for `CN(c1ccccn1)S(=O)(=O)NC(=O)c1cnc2ccc(N3C[C@@H](F)C[C@@H]3c3cc(F)ccc3OC3CCOCC3)cn12` [Example 104, 6-((2R,4S)-4-fluoro-2-(5-fluoro-2-((tetrahydro-2H-pyran-4-yl)oxy)phenyl)pyrrolidin-1-yl)-N—(N-methyl-N-(pyridin-2-yl)sulfamoyl)imidazo[1,2-a]pyridine-3-carboxamide] it is ≤ 0.05 µM.

Regarding `COCCN(C)S(=O)(=O)NC(=O)c1cnc2ccc(N3CCC[C@@H]3c3cc(F)ccc3O[C@@H]3CCOC3)cn12` [Example 105, 6-((R)-2-(5-fluoro-2-(((R)-tetrahydrofuran-3-yl)oxy)phenyl)pyrrolidin-1-yl)-N—(N-(2-methoxyethyl)-N-methylsulfamoyl)imidazo[1,2-a]pyridine-3-carboxamide], the IC50 was ≤ 0.05 µM.

As for `CN(C)S(=O)(=O)NC(=O)c1cnc2ccc(N3CCC[C@@H]3c3cc(F)ccc3O[C@@H]3CCOC3)cn12` [Example 106, N—(N,N-dimethylsulfamoyl)-6-((R)-2-(5-fluoro-2-(((R)-tetrahydrofuran-3-yl)oxy)phenyl)pyrrolidin-1-yl)imidazo[1,2-a]pyridine-3-carboxamide], the IC50 is ≤ 0.05 µM.

For the compound `CCCN(C)S(=O)(=O)NC(=O)c1cnc2ccc(N3CCC[C@@H]3c3cc(F)ccc3O[C@@H]3CCOC3)cn12` [Example 107, 6-((R)-2-(5-fluoro-2-(((R)-tetrahydrofuran-3-yl)oxy)phenyl)pyrrolidin-1-yl)-N—(N-methyl-N-propylsulfamoyl)imidazo[1,2-a]pyridine-3-carboxamide], the IC50 is ≤ 0.05 µM. The same measure for `CN(C1CC1)S(=O)(=O)NC(=O)c1cnc2ccc(N3C[C@@H](F)C[C@@H]3c3cc(F)ccc3OC3CCOCC3)cn12` [Example 108, N—(N-cyclopropyl-N-methylsulfamoyl)-6-((2R,4S)-4-fluoro-2-(5-fluoro-2-((tetrahydro-2H-pyran-4-yl)oxy)phenyl)pyrrolidin-1-yl)imidazo[1,2-a]pyridine-3-carboxamide]: ≤ 0.05 µM; for `CN(CC(C)(C)F)S(=O)(=O)NC(=O)c1cnc2ccc(N3C[C@@H](F)C[C@@H]3c3cc(F)ccc3OC3CCOCC3)cn12` [Example 110, 6-((2R,4S)-4-fluoro-2-(5-fluoro-2-((tetrahydro-2H-pyran-4-yl)oxy)phenyl)pyrrolidin-1-yl)-N—(N-(2-fluoro-2-methylpropyl)-N-methylsulfamoyl)imidazo[1,2-a]pyridine-3-carboxamide]: ≤ 0.05 µM.

Usually IC50 stands for the midpoint of a concentration-inhibition curve.
